# Reference: patent US20080262017A1, “Sugar-Free Storage-Stable Antihistaminic Syrups” (priority 2006, published 2008)
# Read-outs that look alike come from different tables or passages of the source.
# Key:
# [1] = cited from earlier work
# [2] = Desloratadine stability (assay, regression analysis); type: physicochemical; settings: Example 1 formulation, regression analysis of data through 18 months
# Description: Data obtained through 18 months at 25° C./60% RH and 30° C./65% RH were evaluated by regression analysis in order to determine a suitable shelf life (see FIGS. 2A and 2B).
# [3] = Example 1 formulation; throughout the 18 month stability interval
# Description: (§1) Three batches of the exemplary formulation detailed in Example 1 were manufactured (referred to herein as Batches A, B, and C) and packaged in two different sizes of amber glass bottles (120 mL and 15 mL).
# Sodium benzoate assay = type: physicochemical; settings: Example 1 formulation; throughout the 18 month stability interval
# Description: as §1
smiles,measurement,setting,value
"Clc1ccc2c(c1)CCc1cccnc1C2=C1CCNCC1 [Desloratadine, 8-chloro-6,11-dihydro-11-(4-piperidinylidene)-5H-benzo[5,6]cyclohepta[1,2-b]pyridine]",solubility,[1]; in ethanol,very soluble
same,solubility,[1]; in propylene glycol,very soluble
same,solubility,[1]; in water,slightly soluble
same,predicted desloratadine assay value over a 24 month shelf life,[2]; stored at 25° C./60% RH,100.9%
same,predicted desloratadine assay value over a 24 month shelf life,[2]; stored at 30° C./65% RH,98.9%
"O=C([O-])CN(CCN(CC(=O)[O-])CC(=O)O)CC(=O)O.[Na+].[Na+] [EDTA, Edetate Disodium]",EDTA assay trend,[3],no degradation trend
O=C([O-])c1ccccc1.[Na+] [sodium benzoate],sodium benzoate assay trend,Sodium benzoate assay,no degradation trend
